The numbers were not newly measured in patent US20220175718A1, “TRANSDERMAL PHARMACEUTICAL FORMULATIONS FOR THE TREATMENT OF CANCER” (PIKE THERAPEUTICS, INC., priority 2020, published 2022), which cites them from elsewhere.

The target in one series is CB2 (Homo sapiens, UniProt P34972). Conditions: for selectivity for CB2 over CB1: given as ×, fold or times.
For a further series, the target named is CB1 (Homo sapiens, UniProt P21554).
Chain of CB1 (P21554 whole entry, species assumed): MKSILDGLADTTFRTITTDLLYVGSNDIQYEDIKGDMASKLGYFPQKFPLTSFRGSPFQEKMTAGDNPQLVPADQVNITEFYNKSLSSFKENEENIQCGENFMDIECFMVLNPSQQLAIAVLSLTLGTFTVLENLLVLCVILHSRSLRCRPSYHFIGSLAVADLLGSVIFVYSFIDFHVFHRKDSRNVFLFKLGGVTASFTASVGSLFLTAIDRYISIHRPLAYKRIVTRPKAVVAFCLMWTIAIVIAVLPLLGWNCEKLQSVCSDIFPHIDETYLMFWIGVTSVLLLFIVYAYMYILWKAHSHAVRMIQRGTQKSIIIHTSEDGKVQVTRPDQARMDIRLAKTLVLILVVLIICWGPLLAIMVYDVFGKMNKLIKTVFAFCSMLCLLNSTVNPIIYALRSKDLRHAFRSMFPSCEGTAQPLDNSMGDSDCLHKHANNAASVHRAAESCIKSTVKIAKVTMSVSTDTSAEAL

Chain of CB2 (P34972 whole entry, species assumed): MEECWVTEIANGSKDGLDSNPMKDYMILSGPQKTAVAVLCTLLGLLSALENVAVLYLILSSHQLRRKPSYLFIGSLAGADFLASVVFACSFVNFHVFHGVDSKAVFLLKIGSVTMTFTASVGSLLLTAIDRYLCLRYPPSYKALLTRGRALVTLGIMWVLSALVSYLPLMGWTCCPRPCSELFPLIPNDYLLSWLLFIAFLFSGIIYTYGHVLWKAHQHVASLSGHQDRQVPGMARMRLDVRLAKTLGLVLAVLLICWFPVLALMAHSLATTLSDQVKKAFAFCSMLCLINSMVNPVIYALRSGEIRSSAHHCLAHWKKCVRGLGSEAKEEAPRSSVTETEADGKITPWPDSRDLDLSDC

Consider `CCCCCCC(C)(C)c1cc(O)c2c(c1)oc(=O)c1ccc(OC)cc12` [AM-1710], for which the “selectivity for CB2 over CB1” value on CB2 was 54. With `CCCn1cc(C(=O)c2ccc(C)c3ccccc23)c2ccccc21` [JWH-120], at CB2, the “selectivity for CB2 over CB1” value was 173.

On to `CCCn1c(C)c(C(=O)c2ccc(C)c3ccccc23)c2ccccc21` [JWH-148], for which, at CB2, the “selectivity for CB2 over CB1” value is on record as “more than 8”. With `CCCCCCC(C)(C)c1cc(OC)c2c(c1)OC(C)(C)C1CCC(O)CC21` (stereo not drawn) [JWH-350, 11-nor-1-methoxy-3-(1′,1′-dimethylheptyl)-9α-hydroxyhexahydrocannabinol], the “selectivity for CB2 over CB1” value at CB2 is 33. As for `CCCCCn1cc(C(=O)c2ccc(Cl)c3ccccc23)c2ccccc21` [JWH-398], the inhibition constant Ki was 2.3 nM at CB1 and 2.8 nM at CB2.

For `CCCCCn1cc(C(=O)c2cccc3cccc(Br)c23)c2ccccc21` [JWH-424], the inhibitory constant (Ki) on CB1 is 20.9 nM; on CB2, 5.44 nM.
